Key:
[1] = Microsomal stability assay (human liver microsomes); type: in vitro ADME
Experimental: To human liver microsomes (0.5 mg/mL) were added 0.1 M phosphate buffer (pH 7.4) and tested compounds (1 μM). After incubation at 37 °C for 5 min, NADPH generation system solution was added and incubated at 37 °C for 30 min. To terminate reaction, acetonitrile including internal standard (chloprapamide) was added, and the solution was centrifuged for 5 min (14,000 rpm, 4 °C). The supernatant was then injected into the LC-MS/MS system to analyze the microsomal stability of the tested compound.

NADPH oxidase = NADPH oxidase activity (lucigenin-ECL) in BMDMs; type: cell-based, mouse; conditions: LPS or LPS/ATP stimulated (Fig. 3c, Supplemental Fig. 5b, 5e)
Experimental: Intracellular superoxide production was measured by the lucigenin (bis-N-methylacridinium nitrate)-ECL method[18],[19]. Briefly, cells lysates were allowed to equilibrate for 30 min at 37 °C in a reaction containing 50 mM phosphate buffer (pH 7.0), 1 mM EGTA, 150 mM sucrose, and a protease inhibitor mixture prior to the addition of Krebs-HEPES buffer containing lucigenin (5 μM) as the electron acceptor and NADPH (100 μM) as the electron donor. The values are expressed as relative light units per 1 × 10^5 cells.
Figure 3 TIPTP robustly suppresses LPS/ATP-mediated Rubicon-p22phox interaction and ROS-mediated inflammation. (a) Structure of the TIPTP. (b) MTT assay for cell viability. BMDMs were incubated with TIPTP for the indicated times at the indicated TIPTP concentrations (upper). WCLs were used for IB with α22phox, αRubicon, or αActin (lower). (c–f) LPS (100 ng/ml)-primed BMDMs were treated with compounds for 1 h, and then activated with ATP (1 mM) for 30 min. (c) NADPH oxidase activity. (d) FACS analysis for superoxide and hydrogen peroxide (upper). Quantitative analysis of mean fluorescence intensities of ROS (lower). (e) BMDMs were incubated with increasing concentrations of compound 1 and TIPTP (com 2) (***). IP with αRubicon, followed by IB with αp22phox, αBeclin-1, αUVRAG, αRubicon. […] (f) Culture supernatants were harvested and analyzed for cytokines by ELISA. […]

C[C@@H](Oc1cccc(-n2cc3c(n2)CCCC3)c1)C(=O)Nc1nnc(C(F)(F)F)s1 [TIPTP, (R)-2-(3-(4,5,6,7-tetrahydro-2H-indazol-2-yl)phenoxy)-N-(5-(trifluoromethyl)-1,3,4-thiadiazol-2-yl)propanamide]
metabolism in human hepatic microsomes ([1]; in words): easily metabolized
remaining at 0.5 h, 1 μM ([1]; pH 7.4, human liver microsomes 0.5 mg/mL, 1 μM, 30 min, read-out: Human liver microsomal stability (% remaining after 30 min)): 4.4%
NOX activity (NADPH oxidase): inhibited in a dose-dependent manner
